Experimental data as given in ChEMBL document CHEMBL1140694, “Identification of new functional inhibitors of acid sphingomyelinase using a structure-property-activity relation model” (J Med Chem, 2008).

Legend:
[1] = Partition coefficient, log P of the compound; format: physicochemical; conditions: octanol/water

Description for physchem: Dissociation constant, pKa of the compound

For `O=c1[nH]c2ccccc2n1C1CCN(CCCC(c2ccc(F)cc2)c2ccc(F)cc2)CC1` [PIMOZIDE], the pKa (physchem) was 8.63.

With `CCCCOc1cc(C(=O)NCCN(CC)CC)c2ccccc2n1` [DIBUCAINE] the pKa (physchem) was 8.85.

Work on `COc1cc(N)c(Cl)cc1C(=O)NC1CCN(Cc2ccccc2)CC1` [CLEBOPRIDE] yielded a logP ([1]; read-out: LogP) of 2.72 and a pKa (physchem) of 8.59.

Work on `CN(Cc1cc(Br)cc(Br)c1N)C1CCCCC1` [BROMHEXINE] yielded a pKa (physchem) of 8.5.

With `C[C@H]1[C@H]2Cc3ccc(O)cc3[C@]1(C)CCN2CC1CC1` [CYCLAZOCINE] the logP [1] was 3.31 and the pKa (physchem) was 9.38.

For `O[C@@](CCN1CCCCC1)(c1ccccc1)C1CCCCC1` [TRIHEXYPHENIDYL], the pKa (physchem) was 8.7.

In the case of `CC(CN(C)C)CN1c2ccccc2Sc2ccccc21` (stereo not given) [METHYLPROMAZINE], the logP ([1]; read-out: LogP) is reported as 4.81 and the pKa (physchem) is reported as 9.11.

`Cc1ccc(C(=CCN2CCCC2)c2ccccn2)cc1` [TRIPROLIDINE] showed a logP ([1]; read-out: LogP) of 3.47 and a pKa (physchem) of 9.69.

Work on `CN1CCC(=C2c3ccccc3CC(=O)c3sccc32)CC1` [KETOTIFEN] yielded a logP ([1]; read-out: LogP) of 3.56 and a pKa (physchem) of 8.24.

For `COc1ccc(CCN2CCC(Nc3nc4ccccc4n3Cc3ccc(F)cc3)CC2)cc1` [ASTEMIZOLE], the logP ([1]; read-out: LogP) was 5.48 and the pKa (physchem) was 8.5.

Work on `N#Cc1ccc2c(c1)N(CCCN1CCC(O)CC1)c1ccccc1S2` [PERICIAZINE] yielded a pKa (physchem) of 8.76.

Work on `NC(=O)C1(N2CCCCC2)CCN(CCCC(=O)c2ccc(F)cc2)CC1` [PIPAMPERONE] yielded a pKa (physchem) of 8.28.

In the case of `COc1cccc([C@@]2(O)CCCC[C@@H]2CN(C)C)c1` [TRAMADOL], the pKa (physchem) is reported as 9.37.

Work on `Cc1ccccc1C(OCCN(C)C)c1ccccc1` (stereo not given) [ORPHENADRINE] yielded a pKa (physchem) of 8.4.

Molecule `NCCc1cc(O)c(O)cc1O` [OXIDOPAMINE] has a pKa (physchem) of 10.3.

Molecule `COc1cc(N)c(Cl)cc1C(=O)NC1CCN(CCCOc2ccc(F)cc2)CC1OC` (stereo not given) [CISAPRIDE] has a pKa (physchem) of 7.9.

In the case of `O=c1[nH]c2ccccc2n1CCCN1CCC(n2c(=O)[nH]c3cc(Cl)ccc32)CC1` [DOMPERIDONE], the logP ([1]; read-out: LogP) is reported as 4.05.

`Cc1nc2sccn2c(=O)c1CCN1CCC(=C(c2ccc(F)cc2)c2ccc(F)cc2)CC1` [RITANSERIN] showed a pKa (physchem) of 8.2.

With `COc1ccc2c(c1)[nH]c1c(C)nccc12` [HARMINE] the pKa (physchem) was 7.5.

With `CN(C)CCCN1c2ccccc2Sc2ccccc21` [PROMAZINE] the pKa (physchem) was 9.34.

Work on `O=C(CCCN1CCC(O)(c2ccc(Cl)cc2)CC1)c1ccc(F)cc1` [HALOPERIDOL] yielded a logP ([1]; read-out: LogP) of 3.23.

`c1ccc(CN(CC2=NCCN2)c2ccccc2)cc1` [ANTAZOLINE] showed a logP ([1]; read-out: LogP) of 4.24 and a pKa (physchem) of 10.1.

`COc1ccc2c(c1OC)C(=O)O[C@@H]2[C@H]1c2c(cc3c(c2OC)OCO3)CCN1C` [NOSCAPINE] showed a pKa (physchem) of 6.2.

With `CN(C)CC/C=C1\c2ccccc2COc2ccccc21` [DOXEPIN] the logP ([1]; read-out: LogP) was 4.01.

In the case of `CCCCNc1ccc(C(=O)OCCN(C)C)cc1` [TETRACAINE], the logP ([1]; read-out: LogP) is reported as 3.73 and the pKa (physchem) is reported as 8.39.

Work on `COCC(=O)O[C@]1(CCN(C)CCCc2nc3ccccc3[nH]2)CCc2cc(F)ccc2[C@@H]1C(C)C` [MIBEFRADIL] yielded a logP [1] of 3.86.

Molecule `CC(NCCC(c1ccccc1)c1ccccc1)c1ccccc1` (stereo not given) [FENDILINE] has a logP ([1]; read-out: LogP) of 4.89 and a pKa (physchem) of 9.04.

With `Nc1ncn([C@@H]2O[C@H](CO)[C@@H](O)[C@H]2O)c(=O)n1` [AZACITIDINE] the logP ([1]; read-out: LogP) was -2.17.

Work on `CN(C)CC/C=C1/c2ccccc2Sc2ccc(Cl)cc21` [CHLORPROTHIXENE] yielded a logP ([1]; read-out: LogP) of 5.18 and a pKa (physchem) of 8.84.

`CN1CCC(=C2c3ccccc3C=Cc3ccccc32)CC1` [CYPROHEPTADINE] showed a pKa (physchem) of 8.87.

Molecule `C(=C\c1ccccc1)/CN1CCN(C(c2ccccc2)c2ccccc2)CC1` [CINNARIZINE] has a pKa (physchem) of 7.47.

Molecule `CNCCCC12CCC(c3ccccc31)c1ccccc12` [MAPROTILINE] has a logP ([1]; read-out: LogP) of 4.5.

`COc1ccc(CN(CCN(C)C)c2ccccn2)cc1` [PYRILAMINE] showed a pKa (physchem) of 8.92.

For `CNC1(C)C2CCC(C2)C1(C)C` (stereo not given) [MECAMYLAMINE], the pKa (physchem) was 11.2.

With `CN[C@H]1CC[C@@H](c2ccc(Cl)c(Cl)c2)c2ccccc21` (single isomer, unassigned) [SERTRALINE] the logP ([1]; read-out: LogP) was 4.3 and the pKa (physchem) was 9.16.

Work on `Cc1c(-c2ccccc2)oc2c(C(=O)OCCN3CCCCC3)cccc2c1=O` [FLAVOXATE] yielded a pKa (physchem) of 7.3.

`COC(=O)[C@H]1[C@H]2C[C@@H]3c4[nH]c5cc(OC)ccc5c4CCN3C[C@H]2C[C@@H](OC(=O)c2cc(OC)c(OC)c(OC)c2)[C@@H]1OC` [RESERPINE] showed a logP ([1]; read-out: LogP) of 3.72 and a pKa (physchem) of 6.6.

For `O=C1NCN(c2ccccc2)C12CCN(CCCC(c1ccc(F)cc1)c1ccc(F)cc1)CC2`, the logP ([1]; read-out: LogP) was 5.83 and the pKa (physchem) was 8.66.

Molecule `COc1ccc(Cc2nccc3cc(OC)c(OC)cc23)cc1OC` [PAPAVERINE] has a logP ([1]; read-out: LogP) of 2.93 and a pKa (physchem) of 6.25.

Molecule `CC(C)(C)c1ccc(C(O)CCCN2CCC(C(O)(c3ccccc3)c3ccccc3)CC2)cc1` (stereo not given) [TERFENADINE] has a pKa (physchem) of 8.6.

Work on `CN(C)CCCN1c2ccccc2Sc2ccc(Cl)cc21` [CHLORPROMAZINE] yielded a logP ([1]; read-out: LogP) of 5.19.

In the case of `CCN1CCCC1CNC(=O)c1cc(S(N)(=O)=O)ccc1OC` (stereo not given) [SULPIRIDE], the logP ([1]; read-out: LogP) is reported as 0.42.

Work on `CN1[C@@H]2CC[C@H]1C[C@@H](OC(c1ccccc1)c1ccccc1)C2` [BENZTROPINE] yielded a pKa (physchem) of 10.

`CC12CC3CC(C)(C1)CC(N)(C3)C2` [MEMANTINE] showed a pKa (physchem) of 10.4.

Work on `CCOC(=O)c1cncn1[C@H](C)c1ccccc1` [ETOMIDATE] yielded a logP ([1]; read-out: LogP) of 3.05 and a pKa (physchem) of 4.5.

In the case of `CCN(CC)CCNC(=O)c1cc(Br)c(N)cc1OC` [BROMOPRIDE], the pKa (physchem) is reported as 9.35.

For `CN1CCN(C2=Nc3cc(Cl)ccc3Nc3ccccc32)CC1` [CLOZAPINE], the logP ([1]; read-out: LogP) was 3.42.

Work on `Fc1ccc(C(c2ccc(F)cc2)N2CCN(C/C=C/c3ccccc3)CC2)cc1` [FLUNARIZINE] yielded a logP ([1]; read-out: LogP) of 6.42 and a pKa (physchem) of 7.71.

Work on `CN1CCC(OC(c2ccccc2)c2ccccc2)CC1` yielded a pKa (physchem) of 8.9.
